Experimental data: patent publication US10894817B2, “Fatty acid modified urocortin-2 analogs for the treatment of diabetes and chronic kidney disease” (priority 2016, dated 2021)
Starred links: 1 amine or outer side, 2 acyl side, 3 side chain; linkers in the order of their positions; H or OH if unused. Non-standard residues stand in square brackets, D forms with d. Residues, ends and D or L forms follow the SMILES beside them. Groups on a side chain read outwards from the residue. *: point of attachment. C20 diacid = O=C(O)CCCCCCCCCCCCCCCCCCC(=O)*; γGlu = O=C(O)[C@H](CCC(=O)[*:2])N[*:1]; Palmitoyl = CCCCCCCCCCCCCCCC(=O)*; NMeI = CC[C@H](C)[C@H](NC)C(=O)O; AEEA = NCCOCCOCC(=O)O

Target: T1, human CRHR2b (Homo sapiens, UniProt Q13324)
T1 construct: expressed in transfected cells; host or cells: Chinese Hamster Ovary (CHO) cells, transient transfection
T1 sequence (Q13324 1-438 isoform Q13324-2): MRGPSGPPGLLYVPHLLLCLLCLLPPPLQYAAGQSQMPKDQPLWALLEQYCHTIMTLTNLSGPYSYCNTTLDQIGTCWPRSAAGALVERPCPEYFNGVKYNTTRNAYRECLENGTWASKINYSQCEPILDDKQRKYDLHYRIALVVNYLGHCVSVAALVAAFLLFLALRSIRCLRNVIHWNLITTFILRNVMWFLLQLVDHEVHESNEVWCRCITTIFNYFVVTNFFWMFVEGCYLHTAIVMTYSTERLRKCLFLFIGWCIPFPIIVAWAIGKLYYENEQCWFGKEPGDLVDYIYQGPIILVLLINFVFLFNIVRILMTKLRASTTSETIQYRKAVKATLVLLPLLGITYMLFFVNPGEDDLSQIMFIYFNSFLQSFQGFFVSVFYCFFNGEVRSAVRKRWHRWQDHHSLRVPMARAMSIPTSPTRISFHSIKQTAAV
Test: human CRHR2b cell-based cAMP assay
Details: cAMP assay; Table 26, compounds of Example 9; read-out: hCRHR2b Average EC50
Summary of the method: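 ED50 values are means ± SEM over several runs, curve-fitted from cAMP in pmol, calibrated against unlabeled-cAMP standards. Detection was HTRF competition, ratio 665/620 nm, after 30 min agonist exposure at 37 °C.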

An EC50 of 0.0635 µM was found for `CCCCCCCCCCCCCCCC(=O)N[C@@H](CCC(=O)NCCCC[C@H](NC(=O)[C@H](CCC(=O)O)NC(=O)[C@H](CCC(N)=O)NC(=O)[C@H](CCC(=O)O)NC(=O)[C@H](CC(C)C)NC(=O)[C@H](CC(C)C)NC(=O)[C@@H](NC(=O)[C@H](CCC(N)=O)NC(=O)[C@H](CC(C)C)NC(=O)[C@H](CC(C)C)NC(=O)CNC(=O)[C@@H](NC(=O)[C@@H]1CCCN1C(=O)[C@@H](NC(=O)[C@H](CC(=O)O)NC(=O)[C@H](CC(C)C)NC(=O)[C@H](CO)NC(=O)[C@H](CC(C)C)NC(=O)[C@@H](NC(=O)[C@@H](N)[C@@H](C)CC)C(C)C)C(C)C)[C@@H](C)CC)[C@@H](C)CC)C(=O)N[C@@H](CCC(N)=O)C(=O)N[C@@H](CCC(=O)O)C(=O)N[C@@H](CCCCN)C(=O)N[C@@H](CCC(=O)O)C(=O)N[C@@H](CCCCN)C(=O)N[C@@H](CCC(N)=O)C(=O)N[C@@H](CCC(N)=O)C(=O)N[C@@H](C)C(=O)N[C@H](C(=O)N[C@H](C(=O)N[C@@H](CC(N)=O)C(=O)N[C@@H](C)C(=O)N[C@@H](CCCNC(=N)N)C(=O)N[C@H](C(=O)N[C@@H](CC(C)C)C(=O)N[C@@H](C)C(=O)N[C@@H](CCCNC(=N)N)C(=O)N[C@H](C(N)=O)C(C)C)[C@@H](C)CC)[C@@H](C)O)[C@@H](C)O)C(=O)O` [Compound 25] (H-IVLSLDVPIGLLQILLEQEK([γGlu-Palmitoyl])QEKEKQQATTNARILARV-NH2) in this work.

An EC50 of 0.00365 µM was found for `CC[C@H](C)[C@H](NC)C(=O)N[C@H](C(=O)N[C@@H](CC(C)C)C(=O)N[C@@H](CO)C(=O)N[C@@H](CC(C)C)C(=O)N[C@@H](CC(=O)O)C(=O)N[C@H](C(=O)N1CCC[C@H]1C(=O)N[C@H](C(=O)NCC(=O)N[C@@H](CC(C)C)C(=O)N[C@@H](CC(C)C)C(=O)N[C@@H](CCC(N)=O)C(=O)N[C@H](C(=O)N[C@@H](CC(C)C)C(=O)N[C@@H](CC(C)C)C(=O)N[C@@H](CCC(=O)O)C(=O)N[C@@H](CCC(N)=O)C(=O)N[C@@H](CCC(=O)O)C(=O)N[C@@H](CCCCN)C(=O)N[C@@H](CCC(N)=O)C(=O)N[C@@H](CCC(=O)O)C(=O)N[C@@H](CCCCN)C(=O)N[C@@H](CCC(=O)O)C(=O)N[C@@H](CCCCN)C(=O)N[C@@H](CCC(N)=O)C(=O)N[C@@H](CCC(N)=O)C(=O)N[C@@H](C)C(=O)N[C@@H](CCCCNC(=O)COCCOCCNC(=O)CC[C@H](NC(=O)CC[C@H](NC(=O)CCCCCCCCCCCCCCCCCCC(=O)O)C(=O)O)C(=O)O)C(=O)N[C@@H](CCC(=O)O)C(=O)N[C@@H](CC(N)=O)C(=O)N[C@@H](C)C(=O)N[C@@H](CCC(=O)O)C(=O)N[C@H](C(=O)N[C@@H](CC(C)C)C(=O)N[C@@H](C)C(=O)N[C@@H](CCC(N)=O)C(=O)N[C@H](C(N)=O)C(C)C)[C@@H](C)CC)[C@@H](C)CC)[C@@H](C)CC)C(C)C)C(C)C` [Compound 57] (H-[NMeI]VLSLDVPIGLLQILLEQEKQEKEKQQAK([AEEA-γGlu-γGlu-C20 diacid])ENAEILAQV-NH2) in this work.
